This passage reports inhibition results from patent EP4610262A1, “MACROCYCLIC COMPOUND AS CDK9 INHIBITOR AND USE THEREOF” (Artivila Biopharma, priority 2022, dated 2024).

Assay in all cases: CDK kinase selectivity (HTRF / ADP-Glo)
Common to all, as to type: biochemical
For orientation: TR-FRET usually uses a lanthanide donor and a delayed reading to cut background.

One assay has as its target CDK12/CyclinK (Homo sapiens, UniProt Q9NYV4). The conditions noted are these: compound at 0.1 µM; read-out: Inhibition rate CDK12/CyclinK. As for the experimental part:
(§1) The selectivity of the test compounds against CDK kinases was detected. The compounds were tested at a concentration of 0.1 µM, and the inhibition rate of CDK kinases by the compounds was detected in duplicate wells, mainly using HTRF and ADP-Glo detection methods.
(§2) The HTRF detection method was conducted as follows: 2-fold ATP/substrate solution and 2-fold kinase/metal ion solution were prepared respectively with a kinase reaction buffer, and 25 nL of diluted compound solution was transferred to a 384-well detection plate with Echo 655. After centrifugation, the plate was added with 2.5 µL of 2-fold kinase/metal ion solution and incubated at 25°C for 10 minutes. After 10 minutes, 2.5 µL of 2-fold substrate/ATP solution was added to the 384-well detection plate and incubated at 25°C for 60 minutes. 2 kinase detection reagent (XL665 and antibody) was prepared with detection buffer, and 5 µL of kinase detection reagent was added to the 384-well detection plate and incubated at 25°C for 60 minutes. The fluorescence signals at 620 nm (Cryptate) and 665 nm (XL665) were read by the microplate reader, and the ratio and the inhibition rate of kinase activity by the compound were calculated.
(§3) The ADP-Glo detection method was conducted as follows. 2-fold ATP/substrate solution and 2-fold kinase/metal ion solution were prepared respectively with a kinase reaction buffer. 20 nL of diluted compound solution was transferred to a 384-well detection plate by Echo 655. After centrifuged, the 384-well detection plate was added with 2 µL of 2 × kinase/metal ion solution, and incubated at 25°C for 10 minutes. After 10 minutes, the 384-well detection plate was added with 2 µL of 2 × substrate/ATP solution and incubated at 25°C for 60 minutes. 4 µL of ADP-Glo reagent was added to each well and incubated at room temperature for 40 minutes. 10 µL of ADP detection reagent was added to each well and incubated at room temperature for 40 minutes. The chemiluminescent signal was detected with a microplate reader and the inhibition rate of kinase activity was calculated.

For another assay, the target named is CDK1/CycA2 (Homo sapiens, UniProt P06493). The following applies: compound at 0.1 µM; read-out: Inhibition rate CDK1/CycA2. How it is done: as §1, §2, §3
Another assay deals with CDK5/p25NCK (Homo sapiens, UniProt Q00535). The following applies: compound at 0.1 µM; read-out: Inhibition rate CDK5/p25NCK. As for the experimental part: as §1, §2, §3
In a further assay the target is CDK6/CycD3 (Homo sapiens, UniProt Q00534). The conditions noted are these: compound at 0.1 µM; read-out: Inhibition rate CDK6/CycD3. As for the experimental part:
as §1, §2, §3

The target in a further assay is CDK16/CyclinY (Homo sapiens, UniProt Q00536). The conditions noted are these: compound at 0.1 µM; read-out: Inhibition rate CDK16/CyclinY. How it is done:
as §1, §2, §3

In the next assay the target is CDK1/CycE1 (Homo sapiens, UniProt P06493). The conditions noted are these: compound at 0.1 µM; read-out: Inhibition rate CDK1/CycE1. How it is done: as §1, §2, §3
Another assay deals with CDK4/cycD1 (Homo sapiens, UniProt P11802). The following applies: compound at 0.1 µM; read-out: Inhibition rate CDK4/cycD1. How it is done:
as §1, §2, §3

A further assay addresses CDK4/CycD3 (Homo sapiens, UniProt P11802). The conditions noted are these: compound at 0.1 µM; read-out: Inhibition rate CDK4/CycD3. How it is done: as §1, §2, §3
The target in a further assay is CDK5/p35NCK (Homo sapiens, UniProt Q00535). The conditions noted are these: compound at 0.1 µM; read-out: Inhibition rate CDK5/p35NCK. How it is done: as §1, §2, §3
The target in another assay is CDK2/CyCA2 (Homo sapiens, UniProt P24941). The following applies: compound at 0.1 µM; read-out: Inhibition rate CDK2/CyCA2. As for the experimental part:
as §1, §2, §3

The target of the next assay is CDK9/CycT1 (Homo sapiens, UniProt P50750). The conditions noted are these: compound at 0.1 µM; read-out: Inhibition rate CDK9/CycT1. How it is done:
as §1, §2, §3

The target in a further assay is CDK18/CyclinY (Homo sapiens, UniProt Q07002). The conditions noted are these: compound at 0.1 µM; read-out: Inhibition rate CDK18/CyclinY. How it is done: as §1, §2, §3
Another assay deals with CDK2/CycE1 (Homo sapiens, UniProt P24941). The conditions noted are these: compound at 0.1 µM; read-out: Inhibition rate CDK2/CycE1. How it is done:
as §1, §2, §3

Another assay concerns the target CDK1/CycB1 (Homo sapiens, UniProt P06493). The following applies: compound at 0.1 µM; read-out: Inhibition rate CDK1/CycB1. How it is done: as §1, §2, §3
The next assay concerns the target CDK6/CycD 1 (Homo sapiens, UniProt Q00534). The following applies: compound at 0.1 µM; read-out: Inhibition rate CDK6/CycD 1. As for the experimental part: as §1, §2, §3
A further assay deals with CDK7/CycH/MAT1 (Homo sapiens, UniProt P50613). The following applies: compound at 0.1 µM; read-out: Inhibition rate CDK7/CycH/MAT1. As for the experimental part:
as §1, §2, §3

A further assay deals with CDK19/CycC (Homo sapiens, UniProt Q9BWU1). The conditions noted are these: compound at 0.1 µM; read-out: Inhibition rate CDK19/CycC. How it is done:
as §1, §2, §3

In the next assay the target is CDK3/CycE1 (Homo sapiens, UniProt Q00526). The following applies: compound at 0.1 µM; read-out: Inhibition rate CDK3/CycE1. How it is done:
as §1, §2, §3

The target of the next assay is CDK13/CyclinK (Homo sapiens, UniProt Q14004). The following applies: compound at 0.1 µM; read-out: Inhibition rate CDK13/CyclinK. As for the experimental part:
as §1, §2, §3

Sequence of CDK1/CycA2 (P06493 whole entry): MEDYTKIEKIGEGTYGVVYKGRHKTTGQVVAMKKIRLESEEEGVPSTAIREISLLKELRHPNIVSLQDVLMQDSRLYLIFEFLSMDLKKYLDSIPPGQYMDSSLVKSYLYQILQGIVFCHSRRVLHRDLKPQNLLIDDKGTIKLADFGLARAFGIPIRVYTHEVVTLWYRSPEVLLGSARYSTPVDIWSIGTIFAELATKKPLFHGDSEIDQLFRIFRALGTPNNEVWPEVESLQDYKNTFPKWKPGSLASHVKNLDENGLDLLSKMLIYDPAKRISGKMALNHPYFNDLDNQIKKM
Sequence of CDK1/CycA2 (P20248 whole entry, further chain): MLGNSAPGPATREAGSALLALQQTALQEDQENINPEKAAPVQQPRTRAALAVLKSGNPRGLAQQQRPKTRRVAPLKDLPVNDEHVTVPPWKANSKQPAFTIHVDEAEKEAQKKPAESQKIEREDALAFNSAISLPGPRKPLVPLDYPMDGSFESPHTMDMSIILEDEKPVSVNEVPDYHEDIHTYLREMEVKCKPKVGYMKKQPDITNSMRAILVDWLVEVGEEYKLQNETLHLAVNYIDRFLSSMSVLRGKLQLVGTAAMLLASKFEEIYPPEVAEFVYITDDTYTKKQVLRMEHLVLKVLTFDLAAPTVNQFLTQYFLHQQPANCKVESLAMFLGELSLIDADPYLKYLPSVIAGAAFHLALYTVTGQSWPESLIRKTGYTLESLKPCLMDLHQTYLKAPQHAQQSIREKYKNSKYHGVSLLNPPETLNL
Sequence of CDK1/CycB1 (P06493 whole entry): as the sequence (P06493 whole entry) above
Sequence of CDK1/CycB1 (P14635 whole entry partner): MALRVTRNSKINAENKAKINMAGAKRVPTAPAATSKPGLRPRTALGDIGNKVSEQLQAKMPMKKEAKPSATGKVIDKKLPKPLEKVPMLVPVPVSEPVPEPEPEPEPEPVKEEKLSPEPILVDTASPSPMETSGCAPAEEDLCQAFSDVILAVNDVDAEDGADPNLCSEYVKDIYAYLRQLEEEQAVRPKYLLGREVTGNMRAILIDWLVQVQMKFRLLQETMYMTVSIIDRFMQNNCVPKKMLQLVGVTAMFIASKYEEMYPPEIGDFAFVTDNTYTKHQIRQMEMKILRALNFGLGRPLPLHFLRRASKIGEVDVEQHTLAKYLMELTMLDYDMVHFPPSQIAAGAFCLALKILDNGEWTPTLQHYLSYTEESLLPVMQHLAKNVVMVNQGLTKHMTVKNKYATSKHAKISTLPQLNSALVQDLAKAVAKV
Sequence of CDK18/CyclinY (Q07002 whole entry): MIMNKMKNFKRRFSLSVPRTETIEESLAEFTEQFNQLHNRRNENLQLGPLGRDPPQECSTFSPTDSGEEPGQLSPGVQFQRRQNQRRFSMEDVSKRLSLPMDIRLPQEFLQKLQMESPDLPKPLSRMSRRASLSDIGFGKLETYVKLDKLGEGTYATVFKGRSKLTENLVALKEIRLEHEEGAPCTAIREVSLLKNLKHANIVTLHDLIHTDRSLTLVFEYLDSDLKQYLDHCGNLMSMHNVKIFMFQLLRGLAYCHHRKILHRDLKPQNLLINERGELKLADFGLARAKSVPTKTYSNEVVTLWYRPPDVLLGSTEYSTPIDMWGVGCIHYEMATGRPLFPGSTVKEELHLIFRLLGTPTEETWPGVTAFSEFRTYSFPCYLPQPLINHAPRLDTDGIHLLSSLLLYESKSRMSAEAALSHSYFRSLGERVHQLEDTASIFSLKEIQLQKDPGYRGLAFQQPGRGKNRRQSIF
Sequence of CDK18/CyclinY (Q8ND76 whole entry partner): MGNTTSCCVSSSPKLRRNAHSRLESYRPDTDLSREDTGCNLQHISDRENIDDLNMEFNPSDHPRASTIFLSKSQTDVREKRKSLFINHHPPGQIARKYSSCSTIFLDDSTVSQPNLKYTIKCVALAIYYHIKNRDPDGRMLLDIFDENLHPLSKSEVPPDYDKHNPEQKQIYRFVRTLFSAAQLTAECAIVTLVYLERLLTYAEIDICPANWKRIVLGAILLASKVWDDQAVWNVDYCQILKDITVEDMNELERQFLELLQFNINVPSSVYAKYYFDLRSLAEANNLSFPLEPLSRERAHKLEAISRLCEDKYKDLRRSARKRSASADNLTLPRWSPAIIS
Sequence of CDK19/CycC (Q9BWU1 whole entry): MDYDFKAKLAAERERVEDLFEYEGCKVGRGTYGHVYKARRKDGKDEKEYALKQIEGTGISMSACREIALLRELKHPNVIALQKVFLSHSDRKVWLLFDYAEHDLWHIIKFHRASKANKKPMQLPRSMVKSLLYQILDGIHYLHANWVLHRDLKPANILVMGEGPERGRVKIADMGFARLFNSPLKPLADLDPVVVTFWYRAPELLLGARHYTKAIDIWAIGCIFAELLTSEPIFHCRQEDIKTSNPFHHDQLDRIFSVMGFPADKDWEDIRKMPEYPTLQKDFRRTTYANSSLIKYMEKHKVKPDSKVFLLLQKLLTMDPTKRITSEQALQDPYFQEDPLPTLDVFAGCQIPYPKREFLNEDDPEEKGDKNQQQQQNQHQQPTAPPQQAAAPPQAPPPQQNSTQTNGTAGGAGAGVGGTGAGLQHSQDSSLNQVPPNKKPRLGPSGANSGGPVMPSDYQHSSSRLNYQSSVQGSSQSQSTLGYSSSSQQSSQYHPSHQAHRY
Sequence of CDK19/CycC (P24863 whole entry partner): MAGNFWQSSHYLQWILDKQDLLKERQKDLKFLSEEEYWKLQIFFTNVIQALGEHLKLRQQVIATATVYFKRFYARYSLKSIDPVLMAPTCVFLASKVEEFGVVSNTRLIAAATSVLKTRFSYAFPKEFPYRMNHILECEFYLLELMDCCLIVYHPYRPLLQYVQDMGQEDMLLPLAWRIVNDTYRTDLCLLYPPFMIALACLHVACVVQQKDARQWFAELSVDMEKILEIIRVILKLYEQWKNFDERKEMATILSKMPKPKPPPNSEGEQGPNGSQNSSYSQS
Sequence of CDK9/CycT1 (P50750 whole entry, species assumed): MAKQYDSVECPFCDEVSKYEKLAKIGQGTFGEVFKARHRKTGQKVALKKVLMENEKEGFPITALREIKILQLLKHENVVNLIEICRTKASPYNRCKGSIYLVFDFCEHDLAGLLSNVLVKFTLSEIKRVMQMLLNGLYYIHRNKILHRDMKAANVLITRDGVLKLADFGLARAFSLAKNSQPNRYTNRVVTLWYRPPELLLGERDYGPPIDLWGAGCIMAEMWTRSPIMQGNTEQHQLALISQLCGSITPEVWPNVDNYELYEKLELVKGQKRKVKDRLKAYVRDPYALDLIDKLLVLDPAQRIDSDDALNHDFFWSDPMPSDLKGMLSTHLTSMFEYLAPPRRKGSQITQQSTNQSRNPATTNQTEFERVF
Sequence of CDK9/CycT1 (O60563 whole entry partner, species assumed): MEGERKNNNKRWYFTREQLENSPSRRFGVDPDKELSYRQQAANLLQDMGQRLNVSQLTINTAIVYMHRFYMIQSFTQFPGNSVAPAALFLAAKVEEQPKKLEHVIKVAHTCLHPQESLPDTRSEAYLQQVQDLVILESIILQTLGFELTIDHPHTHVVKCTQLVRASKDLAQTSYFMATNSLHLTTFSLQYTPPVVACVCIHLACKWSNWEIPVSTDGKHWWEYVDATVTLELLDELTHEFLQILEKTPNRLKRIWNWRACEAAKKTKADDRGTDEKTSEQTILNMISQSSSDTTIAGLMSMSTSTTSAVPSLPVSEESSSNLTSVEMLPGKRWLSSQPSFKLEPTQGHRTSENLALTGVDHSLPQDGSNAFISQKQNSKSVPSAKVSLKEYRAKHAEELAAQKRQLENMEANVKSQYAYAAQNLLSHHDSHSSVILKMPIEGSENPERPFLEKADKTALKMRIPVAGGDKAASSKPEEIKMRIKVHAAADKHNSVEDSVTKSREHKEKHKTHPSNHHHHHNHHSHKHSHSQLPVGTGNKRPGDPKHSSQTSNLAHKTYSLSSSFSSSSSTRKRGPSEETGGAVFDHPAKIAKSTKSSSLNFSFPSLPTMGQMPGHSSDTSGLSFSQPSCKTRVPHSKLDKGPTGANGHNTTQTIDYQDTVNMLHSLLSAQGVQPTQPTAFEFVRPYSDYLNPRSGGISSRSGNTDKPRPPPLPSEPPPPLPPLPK
Sequence of CDK6/CycD 1 (Q00534 whole entry): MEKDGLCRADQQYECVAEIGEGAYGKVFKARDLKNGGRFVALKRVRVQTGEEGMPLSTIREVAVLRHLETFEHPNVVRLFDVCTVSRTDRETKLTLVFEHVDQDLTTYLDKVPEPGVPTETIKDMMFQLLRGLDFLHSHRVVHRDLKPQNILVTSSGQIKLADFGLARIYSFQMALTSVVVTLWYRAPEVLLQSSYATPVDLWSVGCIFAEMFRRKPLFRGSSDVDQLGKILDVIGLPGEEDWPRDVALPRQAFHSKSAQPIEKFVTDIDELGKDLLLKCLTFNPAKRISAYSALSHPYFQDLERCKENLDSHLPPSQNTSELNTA
Sequence of CDK6/CycD 1 (P24385 whole entry partner): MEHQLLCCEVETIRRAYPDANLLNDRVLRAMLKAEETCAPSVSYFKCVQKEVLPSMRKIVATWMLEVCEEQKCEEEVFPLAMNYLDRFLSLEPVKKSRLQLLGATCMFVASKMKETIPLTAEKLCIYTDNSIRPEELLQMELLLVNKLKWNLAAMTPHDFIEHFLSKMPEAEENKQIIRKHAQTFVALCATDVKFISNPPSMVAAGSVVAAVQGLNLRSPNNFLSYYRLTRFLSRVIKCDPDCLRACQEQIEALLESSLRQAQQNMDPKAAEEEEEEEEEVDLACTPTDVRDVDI

In the case of `Clc1cnc2nc1NCCCCCNCc1cccc(c1)N2` [Compound 8, 1^5-chloro-2,5,11-triaza-1(2,4)-pyrimidina-3(1,3)-benzenacyclodecaphane], the inhibition at 0.1 µM on CDK12/CyclinK is 50 to 75%; at CDK1/CycA2, below 50%; at CDK5/p25NCK, 50 to 75%; on CDK6/CycD3 it was below 50%; at CDK16/CyclinY, 50 to 75%; at CDK1/CycE1, below 50%. Besides, the inhibition at 0.1 µM was below 50% at CDK4/cycD1; 50 to 75% at CDK4/CycD3; below 50% at CDK5/p35NCK; below 50% at CDK2/CyCA2; above 95% on CDK9/CycT1; below 50% at CDK18/CyclinY. In addition, the inhibition at 0.1 µM was 50 to 75% on CDK2/CycE1; below 50% on CDK1/CycB1; below 50% on CDK6/CycD 1; 50 to 75% at CDK7/CycH/MAT1; below 50% on CDK19/CycC; 50 to 75% on CDK3/CycE1. In addition, at CDK13/CyclinK, the inhibition at 0.1 µM is 50 to 75%.
